Data on 20 compounds can be found in patent US20070072831A1, “Integrase inhibitor compounds” (GILEAD SCIENCES, INC., priority 2005, published 2007).

In assay [1] the test system is HIV-IIIb. Put plainly: Antiviral assay in MT-4 cells infected with HIV-IIIb. In kind it is cell-based. The settings on record: MT4, 120 h; MT-4 cells, HIV-IIIb, 5 days; read-out: EC50 Range MT-4. The procedure: See: Wolfe, etal J. Virol.
Antiviral Assays in MT2 and MT4 Cells
For the antiviral assay utilizing MT-2 cells, 50 μl of 2× test concentration of 5-fold serially diluted compound in culture medium with 10% FBS was added to each well of a 96-well plate (9 concentrations) in triplicate. MT-2 cells were infected with HIV-IIIb at a multiplicity of infection (m.o.i) of 0.01 for 3 hours. Fifty microliters of infected cell suspension in culture medium with 10% FBS (˜1.5×10^4 cells) was then added to each well containing 50 μl of diluted compound. The plates were then incubated at 37° C. for 5 days. For the antiviral assay utilizing MT-4 cells, 20 μl of 2× test concentration of 5-fold serially diluted compound in culture medium with 10% FBS was added to each well of a 384-well plate (7 concentrations) in triplicate. MT-4 cells were next mixed with HIV-IIIb at an m.o.i. of 0.1 and 20 μl of virus/cell mixture (˜2000 cells) was immediately added to each well containing 20 μl of diluted compound. The plates were then incubated at 37° C. for 5 days. After 5 days of incubation, 100 μl of CellTiter-Glo™ Reagent (catalog # G7571, Promega Biosciences, Inc., Madison, Wis.) was added to each well containing MT-2 cells and 40 μl to each well containing MT-4 cells. Cell lysis was carried out by incubating at room temperature for 10 min and then chemiluminescence was read.

For assay [2], the target named is HIV integrase (Human immunodeficiency virus type 1 group M subtype B, UniProt P04585). Briefly: biochemical.
Description: Representative compounds of the invention were tested for biological activity by methods including anti-HIV assay, measuring inhibition of HIV-integrase strand transfer catalysis, and cytotoxicity.
HIV Integrase Assay (IC50 Determination)
The HIV Integrase assay is carried out in Reacti-Bind High Binding Capacity Streptavidin coated plates (Pierce # 15502) in 100 μl reactions. The wells of the plate are rinsed once with PBS. Each well is then coated at room temperature for 1 h with 100 μl of 0.14 μM Donor DNA with the following sequence:
After coating, the plate was washed twice with PBS. 3′processing of the Donor DNA is started by adding 80 μl of Integrase/buffer mixture (25 mM HEPES, pH 7.3, 12.5 mM DTT, 93.75 mM NaCl, 12.5 mM MgCl2, 1.25% Glycerol, 0.3125 uM integrase) to each well. 3′processing is allowed to proceed for 30 min at 37° C., after which, 10 μl of test compound and 10 μl of 2.5 uM DIG-labeled Target DNA with the following sequence:
are added to each well to allow strand transfer to proceed for 30 min at 37° C. The plate is then washed three times with 2×SSC for 5 min and rinsed once with PBS. For detection of integrated product, 100 μl of a 1/2000 dilution of HRP-conjugated anti-DIG antibody (Pierce #31468) are added to each well and incubated for 1 hour. The plate was then washed three times for 5 min each, with 0.05% Tween-20 in PBS. For signal development and amplification, 100 μl of SuperSignal ELISA Femto Substrate (Pierce #37075) are added to each well. Chemiluminescence (in relative light units) is read immediately at 425 nm in the SPECTRAmax GEMINI Microplate Spectrophotometer using the end point mode at 5 sec per well.
For IC50 determinations, eight concentrations of test compounds in a 1/2.2 dilution series are used.

As for `CN(c1c2c(c(O)c3ncccc13)C(=O)N(Cc1ccc(F)cc1)C2)S(=O)(=O)CC(F)(F)F` [Compound 156, 2,2,2-trifluoro-N-(7-(4-fluorobenzyl)-9-hydroxy-8-oxo-7,8-dihydro-6H-pyrrolo[3,4-g]quinolin-5-yl)-N-methylethane-1-sulfonamide], in assay [1], the 50% effective concentration (EC50) lay within 60 to 1000 nM. This compound also showed an IC50 in assay [2] of under 60 nM.
For the compound `CN(c1c2c(c(O)c3ncccc13)C(=O)N(Cc1ccc(F)cc1)C2)S(=O)(=O)c1ccccn1` [Compound 158, N-(7-(4-fluorobenzyl)-9-hydroxy-8-oxo-7,8-dihydro-6H-pyrrolo[3,4-g]quinolin-5-yl)-N-methylpyridine-2-sulfonamide], the EC50 in assay [1] was under 60 nM. Also, the IC50 in assay [2] lay in the range of 60 to 1000 nM.
In the case of `CN(c1c2c(c(O)c3ncccc13)C(=O)N(Cc1ccc(F)cc1)C2)S(=O)(=O)c1ccc(N2CCOCC2)nc1` [Compound 159, N-(7-(4-fluorobenzyl)-9-hydroxy-8-oxo-7,8-dihydro-6H-pyrrolo[3,4-g]quinolin-5-yl)-N-methyl-6-morpholinopyridine-3-sulfonamide], the EC50 in assay [1] lay within 60 to 1000 nM. Further, in assay [2], the IC50 lay in the range of 60 to 1000 nM.
For the compound `CC(=O)Nc1nc(C)c(S(=O)(=O)N(C)c2c3c(c(O)c4ncccc24)C(=O)N(Cc2ccc(F)cc2)C3)s1` [Compound 160, N-(5-(N-(7-(4-fluorobenzyl)-9-hydroxy-8-oxo-7,8-dihydro-6H-pyrrolo[3,4-g]quinolin-5-yl)-N-methylsulfamoyl)-4-methylthiazol-2-yl)acetamide], the EC50 in assay [1] fell in the range of 60 to 1000 nM. For the same compound, in assay [2], the IC50 fell in the range of 60 to 1000 nM.
`CCN(CC)CCS(=O)(=O)N(C)c1c2c(c(O)c3ncccc13)C(=O)N(Cc1ccc(F)cc1)C2` [Compound 161, 2-(diethylamino)-N-(7-(4-fluorobenzyl)-9-hydroxy-8-oxo-7,8-dihydro-6H-pyrrolo[3,4-g]quinolin-5-yl)-N-methylethanesulfonamide]: in assay [1], the EC50 is under 60 nM. For the same compound, the half-maximal inhibitory concentration (IC50) in assay [2] is 60 to 1000 nM.
As for `CN(c1c2c(c(O)c3ncccc13)C(=O)N(Cc1ccc(F)cc1)C2)S(=O)(=O)CCN1CCCCC1` [Compound 162, N-(7-(4-fluorobenzyl)-9-hydroxy-8-oxo-7,8-dihydro-6H-pyrrolo[3,4-g]quinolin-5-yl)-N-methyl-2-(piperidin-1-yl)ethanesulfonamide], in assay [1], the EC50 was in the range of 60 to 1000 nM. In addition, in assay [2], the IC50 was 60 to 1000 nM.
Turning to `CN(c1c2c(c(O)c3ncccc13)C(=O)N(Cc1ccc(F)cc1)C2)S(=O)(=O)CCN1CCOCC1` [Compound 163, N-(7-(4-fluorobenzyl)-9-hydroxy-8-oxo-7,8-dihydro-6H-pyrrolo[3,4-g]quinolin-5-yl)-N-methyl-2-morpholinoethanesulfonamide], the half-maximal effective concentration (EC50) in assay [1] was under 60 nM. The compound further gave an IC50 in assay [2] of under 60 nM.
As for `CN(c1c2c(c(O)c3ncccc13)C(=O)N(Cc1ccc(F)cc1)C2)S(=O)(=O)CCN1CCNCC1` [Compound 164, N-(7-(4-fluorobenzyl)-9-hydroxy-8-oxo-7,8-dihydro-6H-pyrrolo[3,4-g]quinolin-5-yl)-N-methyl-2-(piperazin-1-yl)ethanesulfonamide], in assay [1], the EC50 was in the range of 60 to 1000 nM. Further, the IC50 in assay [2] is 60 to 1000 nM.
`CN(C)C(=O)N(C)c1c2c(c(O)c3ncccc13)C(=O)N(Cc1ccc(F)cc1)C2` [Compound 171, 1-(7-(4-fluorobenzyl)-9-hydroxy-8-oxo-7,8-dihydro-6H-pyrrolo[3,4-g]quinolin-5-yl)-1,3,3-trimethylurea]: the EC50 in assay [1] was under 60 nM. Moreover, the half-maximal inhibitory concentration (IC50) in assay [2] was under 60 nM.
With `CN(C(=O)N1CCOCC1)c1c2c(c(O)c3ncccc13)C(=O)N(Cc1ccc(F)cc1)C2` [Compound 173, N-(7-(4-fluorobenzyl)-9-hydroxy-8-oxo-7,8-dihydro-6H-pyrrolo[3,4-g]quinolin-5-yl)-N-methylmorpholine-4-carboxamide], the EC50 in assay [1] was 60 to 1000 nM. The same compound showed an IC50 in assay [2] of 60 to 1000 nM.
Regarding `CN(c1c2c(c(O)c3ncccc13)C(=O)N(Cc1cccc(Cl)c1)C2)S(C)(=O)=O` [Compound 175, N-(7-(3-chlorobenzyl)-9-hydroxy-8-oxo-7,8-dihydro-6H-pyrrolo[3,4-g]quinolin-5-yl)-N-methylmethanesulfonamide], the EC50 in assay [1] is under 60 nM. In assay [2], this compound yielded an IC50 of 60 to 1000 nM.
On to `CN(c1c2c(c(O)c3ncccc13)C(=O)N(Cc1cccc(Cl)c1F)C2)S(C)(=O)=O` [Compound 177, N-(7-(3-chloro-2-fluorobenzyl)-9-hydroxy-8-oxo-7,8-dihydro-6H-pyrrolo[3,4-g]quinolin-5-yl)-N-methylmethanesulfonamide], for which the EC50 in assay [1] was under 60 nM. For the same compound, in assay [2], the IC50 was in the range of 60 to 1000 nM.
For the compound `CN(c1c2c(c(O)c3ncccc13)C(=O)N(Cc1ccc(F)c(F)c1)C2)S(C)(=O)=O` [Compound 179, N-(7-(3,4-difluorobenzyl)-9-hydroxy-8-oxo-7,8-dihydro-6H-pyrrolo[3,4-g]quinolin-5-yl)-N-methylmethanesulfonamide], the EC50 in assay [1] was under 60 nM. In assay [2], this compound yielded an IC50 of under 60 nM.
Turning to `CN(c1c2c(c(O)c3ncccc13)C(=O)N(Cc1ccc(F)c(Cl)c1)C2)S(C)(=O)=O` [Compound 181, N-(7-(3-chloro-4-fluorobenzyl)-9-hydroxy-8-oxo-7,8-dihydro-6H-pyrrolo[3,4-g]quinolin-5-yl)-N-methylmethanesulfonamide], the half-maximal effective concentration (EC50) in assay [1] is under 60 nM. The compound further displayed an IC50 in assay [2] of under 60 nM.
In the case of `CN(c1c2c(c(O)c3ncccc13)C(=O)N(Cc1ccc(Cl)cc1)C2)S(C)(=O)=O` [Compound 183, N-(7-(4-chlorobenzyl)-9-hydroxy-8-oxo-7,8-dihydro-6H-pyrrolo[3,4-g]quinolin-5-yl)-N-methylmethanesulfonamide], in assay [1], the EC50 is under 60 nM. The IC50 in assay [2] was 60 to 1000 nM.
For `CN(c1c2c(c(O)c3ncccc13)C(=O)N(Cc1c(F)ccc(Cl)c1F)C2)S(C)(=O)=O` [Compound 185, N-(7-(3-chloro-2,6-difluorobenzyl)-9-hydroxy-8-oxo-7,8-dihydro-6H-pyrrolo[3,4-g]quinolin-5-yl)-N-methylmethanesulfonamide], in that order: under 60 nM and 60 to 1000 nM.
With `CN(c1c2c(c(O)c3ncccc13)C(=O)N(Cc1c(F)cc(F)cc1F)C2)S(C)(=O)=O` [Compound 187, N-(7-(2,4,6-trifluorobenzyl)-9-hydroxy-8-oxo-7,8-dihydro-6H-pyrrolo[3,4-g]quinolin-5-yl)-N-methylmethanesulfonamide], the concentration for a half-maximal effect (EC50) in assay [1] is under 60 nM. In assay [2], this compound yielded an IC50 of 60 to 1000 nM.
Take `CN(c1c2c(c(O)c3ncccc13)C(=O)N(Cc1ccc(Cl)cc1F)C2)S(C)(=O)=O` [Compound 189, N-(7-(4-chloro-2-fluorobenzyl)-9-hydroxy-8-oxo-7,8-dihydro-6H-pyrrolo[3,4-g]quinolin-5-yl)-N-methylmethanesulfonamide]: the EC50 in assay [1] was under 60 nM. In addition, in assay [2], the IC50 fell in the range of 60 to 1000 nM.
With `CN(c1c2c(c(O)c3ncccc13)C(=O)N(Cc1cc(F)ccc1F)C2)S(C)(=O)=O` [Compound 191, N-(7-(2,5-difluorobenzyl)-9-hydroxy-8-oxo-7,8-dihydro-6H-pyrrolo[3,4-g]quinolin-5-yl)-N-methylmethanesulfonamide], the EC50 in assay [1] is under 60 nM. For the same compound, the IC50 in assay [2] lay in the range of 60 to 1000 nM.
Consider `CN(c1c2c(c(O)c3ncccc13)C(=O)N(Cc1cc(Cl)cc(Cl)c1)C2)S(C)(=O)=O` [Compound 193, N-(7-(3,5-dichlorobenzyl)-9-hydroxy-8-oxo-7,8-dihydro-6H-pyrrolo[3,4-g]quinolin-5-yl)-N-methylmethanesulfonamide], for which the EC50 in assay [1] is under 60 nM. This compound also had an IC50 in assay [2] of 60 to 1000 nM.
